Here are results for 2 compounds from paper PMC11732987, “Enantioselective OTUD7B fragment discovery through chemoproteomics screening and high-throughput optimisation” (Communications Chemistry, 2025).

SMILES strings stand for the structures. pIC50: −log10 of the molar value.

Assay [1] deals with T1, OTUD7B (Homo sapiens, UniProt Q6GQQ9).
T1 sequence (Q6GQQ9 129-438): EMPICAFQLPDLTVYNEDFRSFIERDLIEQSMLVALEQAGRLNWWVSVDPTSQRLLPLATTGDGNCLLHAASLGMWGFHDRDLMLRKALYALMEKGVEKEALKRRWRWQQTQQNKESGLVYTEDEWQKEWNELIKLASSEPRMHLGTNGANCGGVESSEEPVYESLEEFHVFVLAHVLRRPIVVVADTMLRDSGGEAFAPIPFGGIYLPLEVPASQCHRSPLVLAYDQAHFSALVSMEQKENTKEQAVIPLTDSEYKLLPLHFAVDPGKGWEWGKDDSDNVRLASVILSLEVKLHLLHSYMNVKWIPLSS
Briefly: Ub-Rho110Gly DUB activity assay; also intact protein LC-MS kinetics (kinact/KI […] ^-1 s^-1), lysate ABPP (TE50 […]). The format is biochemical. Details: OTUD7B aa129-438 (intact protein LC-MS).

Assay [2] deals with T1, OTUD7B. Briefly: Ub-Rho110Gly DUB activity assay; also intact protein LC-MS kinetics (kinact/KI […] ^-1 s^-1), SiteID LC-MS/MS, lysate ABPP (TE50 […]). The assay is classed as biochemical. Details: OTU domain; OTUD7B aa129-438 (intact protein LC-MS), aa129–538 (SiteID).

One may read the pIC50 as −log10 of the IC50, conventionally taken in molar units. Lower therefore signals a high IC50. Compound `O=C(CCl)N[C@@H]1CCCc2ccccc21` [compound 30] had a pIC50 on OTUD7B [1] of 4.23.
As to `O=C(CCl)N[C@H]1CCCc2ccccc21` [compound 29], the pIC50 on OTUD7B [2] was 5.46.
